According to patent US9212182B2, “Bicyclic sulfonamide compounds as sodium channel inhibitors” (AMGEN INC., priority 2013, dated 2015):

What follows are molecules tested against Nav 1.7 (Homo sapiens (Human), UniProt Q15858) (assay: in-vitro Nav 1.7 PX (IC50)). Details: in-vitro Nav 1.7 PX data.
Format: cell-based

Sequence of Nav 1.7 (Q15858 whole entry): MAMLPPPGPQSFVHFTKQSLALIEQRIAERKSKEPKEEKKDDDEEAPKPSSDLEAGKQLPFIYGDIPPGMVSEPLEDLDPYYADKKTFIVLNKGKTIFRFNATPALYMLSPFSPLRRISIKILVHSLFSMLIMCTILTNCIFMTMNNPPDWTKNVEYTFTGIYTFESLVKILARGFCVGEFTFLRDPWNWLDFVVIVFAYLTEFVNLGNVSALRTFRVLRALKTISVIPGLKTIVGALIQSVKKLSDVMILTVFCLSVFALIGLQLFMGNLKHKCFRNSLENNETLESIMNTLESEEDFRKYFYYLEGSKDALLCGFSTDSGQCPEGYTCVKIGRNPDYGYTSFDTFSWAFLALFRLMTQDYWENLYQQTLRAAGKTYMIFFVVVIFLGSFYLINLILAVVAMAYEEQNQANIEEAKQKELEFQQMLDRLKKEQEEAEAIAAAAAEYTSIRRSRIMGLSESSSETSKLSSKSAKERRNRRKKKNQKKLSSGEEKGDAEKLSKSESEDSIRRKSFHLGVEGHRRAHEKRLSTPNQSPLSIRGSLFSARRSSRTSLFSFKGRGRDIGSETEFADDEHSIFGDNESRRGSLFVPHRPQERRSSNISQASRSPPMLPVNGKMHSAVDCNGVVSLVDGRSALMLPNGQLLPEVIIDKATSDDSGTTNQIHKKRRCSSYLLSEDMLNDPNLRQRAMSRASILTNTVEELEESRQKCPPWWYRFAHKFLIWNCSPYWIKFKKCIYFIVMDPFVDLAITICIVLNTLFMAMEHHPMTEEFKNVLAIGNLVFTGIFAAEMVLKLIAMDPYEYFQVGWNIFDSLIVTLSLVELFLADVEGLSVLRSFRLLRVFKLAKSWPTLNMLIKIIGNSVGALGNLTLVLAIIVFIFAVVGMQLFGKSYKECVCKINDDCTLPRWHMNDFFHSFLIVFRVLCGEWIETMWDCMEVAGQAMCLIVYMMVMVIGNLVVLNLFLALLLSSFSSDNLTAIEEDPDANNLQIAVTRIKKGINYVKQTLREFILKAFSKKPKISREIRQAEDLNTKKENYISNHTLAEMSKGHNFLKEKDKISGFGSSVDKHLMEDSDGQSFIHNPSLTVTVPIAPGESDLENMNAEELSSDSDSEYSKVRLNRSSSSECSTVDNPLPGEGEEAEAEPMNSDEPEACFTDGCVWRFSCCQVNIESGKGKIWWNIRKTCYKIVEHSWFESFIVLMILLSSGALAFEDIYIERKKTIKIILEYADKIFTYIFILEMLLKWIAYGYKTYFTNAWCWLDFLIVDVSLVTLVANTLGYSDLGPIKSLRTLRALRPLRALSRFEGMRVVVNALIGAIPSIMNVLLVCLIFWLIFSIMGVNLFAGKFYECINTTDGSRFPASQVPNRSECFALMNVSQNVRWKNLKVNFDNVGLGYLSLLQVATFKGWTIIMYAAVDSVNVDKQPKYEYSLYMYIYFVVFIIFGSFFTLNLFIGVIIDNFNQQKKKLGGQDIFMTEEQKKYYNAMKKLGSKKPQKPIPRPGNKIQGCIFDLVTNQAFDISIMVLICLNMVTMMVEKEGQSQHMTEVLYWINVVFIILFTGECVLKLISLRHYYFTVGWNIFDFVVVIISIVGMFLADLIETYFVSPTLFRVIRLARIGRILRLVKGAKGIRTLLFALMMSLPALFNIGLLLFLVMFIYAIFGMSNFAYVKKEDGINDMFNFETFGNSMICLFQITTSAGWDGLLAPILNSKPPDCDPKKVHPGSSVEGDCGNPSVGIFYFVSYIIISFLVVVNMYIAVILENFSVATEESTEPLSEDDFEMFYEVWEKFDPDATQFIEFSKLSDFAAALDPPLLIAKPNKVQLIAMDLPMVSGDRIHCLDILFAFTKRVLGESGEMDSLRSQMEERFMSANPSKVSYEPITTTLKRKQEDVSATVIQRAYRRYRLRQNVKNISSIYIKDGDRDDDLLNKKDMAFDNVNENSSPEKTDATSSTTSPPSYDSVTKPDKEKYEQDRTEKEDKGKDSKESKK

| Structure (SMILES) | IC50 |
| --- | --- |
| COc1cc(F)cc(-c2ccc(-n3c(=O)ccc4cc(S(=O)(=O)Nc5ncco5)ccc43)c(OC)c2)c1 [Example 1005, 1-(3′-fluoro-3,5′-dimethoxy-4-biphenylyl)-N-1,3-oxazol-2-yl-2-oxo-1,2-dihydro-6-quinolinesulfonamide] | 268 nM |
| COc1cc(-c2cc(OC)c(-n3c(=O)ccc4cc(S(=O)(=O)Nc5ncccn5)ccc43)cc2F)ccc1F [Example 1006, 1-(2,4′-difluoro-3′,5-dimethoxy-4-biphenylyl)-2-oxo-N-2-pyrimidinyl-1,2-dihydro-6-quinolinesulfonamide] | 76 nM |
| COc1cc(-c2cc(OC)c(-n3c(=O)ccc4cc(S(=O)(=O)Nc5cccnn5)ccc43)cc2F)ccc1F [Example 1007, 1-(2,4′-difluoro-3′,5-dimethoxy-4-biphenylyl)-2-oxo-N-3-pyridazinyl-1,2-dihydro-6-quinolinesulfonamide] | 131 nM |
| COc1cc(-c2cc(OC)c(-n3c(=O)ccc4cc(S(=O)(=O)Nc5ccnc(C)n5)ccc43)cc2F)ccc1F [Example 1008, 1-(2,4′-difluoro-3′,5-dimethoxy-4-biphenylyl)-N-(2-methyl-4-pyrimidinyl)-2-oxo-1,2-dihydro-6-quinolinesulfonamide] | 210 nM |
| COc1cc(-c2cc(OC)c(-n3c(=O)ccc4cc(S(=O)(=O)Nc5cc(C)ncn5)ccc43)cc2F)ccc1F [Example 1009, 1-(2,4′-difluoro-3′,5-dimethoxy-4-biphenylyl)-N-(6-methyl-4-pyrimidinyl)-2-oxo-1,2-dihydro-6-quinolinesulfonamide] | 151 nM |
| COc1cc(-c2cc(OC)c(-n3c(=O)ccc4cc(S(=O)(=O)Nc5ncco5)ccc43)cc2F)ccc1F [Example 1011, 1-(2,4′-difluoro-3′,5-dimethoxy-4-biphenylyl)-N-1,3-oxazol-2-yl-2-oxo-1,2-dihydro-6-quinolinesulfonamide] | 207 nM |
| COc1cc(-c2ccc(F)c(F)c2)ccc1-n1c(=O)ccc2cc(S(=O)(=O)Nc3ccon3)ccc21 [Example 1014, 1-(3′,4′-difluoro-3-methoxy-4-biphenylyl)-N-3-isoxazolyl-2-oxo-1,2-dihydro-6-quinolinesulfonamide] | 53 nM |
| COc1cc(-c2cc(C)cc(C)c2)ccc1-n1c(=O)ccc2cc(S(=O)(=O)Nc3ccon3)ccc21 [Example 1016, N-3-isoxazolyl-1-(3-methoxy-3′,5′-dimethyl-4-biphenylyl)-2-oxo-1,2-dihydro-6-quinolinesulfonamide] | 11 nM |
| COc1cc(-c2ccc(-n3c(=O)ccc4cc(S(=O)(=O)Nc5ccon5)ccc43)c(OC)c2)ccc1F [Example 1017, 1-(4′-fluoro-3,3′-dimethoxy-4-biphenylyl)-N-3-isoxazolyl-2-oxo-1,2-dihydro-6-quinolinesulfonamide] | 80 nM |
| COc1cc(F)cc(-c2ccc(-n3c(=O)ccc4cc(S(=O)(=O)Nc5ccon5)ccc43)c(OC)c2)c1 [Example 1018, 1-(3′-fluoro-3,5′-dimethoxy-4-biphenylyl)-N-3-isoxazolyl-2-oxo-1,2-dihydro-6-quinolinesulfonamide] | 13 nM |
| COc1cc(-c2cccc(C#N)c2)ccc1-n1c(=O)ccc2cc(S(=O)(=O)Nc3ccon3)ccc21 [Example 1019, 1-(3′-cyano-3-methoxy-4-biphenylyl)-N-3-isoxazolyl-2-oxo-1,2-dihydro-6-quinolinesulfonamide] | 98 nM |
| COc1cc(-c2cc(C)cnc2OC)ccc1-n1c(=O)ccc2cc(S(=O)(=O)Nc3ccon3)ccc21 [Example 1022, N-3-isoxazolyl-1-(2-methoxy-4-(2-methoxy-5-methyl-3-pyridinyl)phenyl)-2-oxo-1,2-dihydro-6-quinolinesulfonamide] | 139 nM |
| COc1cc(-c2cc(Cl)cc(Cl)c2)ccc1-n1c(=O)ccc2cc(S(=O)(=O)Nc3ccon3)ccc21 [Example 1023, 1-(3′,5′-dichloro-3-methoxy-4-biphenylyl)-N-3-isoxazolyl-2-oxo-1,2-dihydro-6-quinolinesulfonamide] | 9 nM |
| COc1cc(-c2cc(F)c(F)cc2F)ccc1-n1c(=O)ccc2cc(S(=O)(=O)Nc3ccon3)ccc21 [Example 1024, N-3-isoxazolyl-2-oxo-1-(2′,4′,5′-trifluoro-3-methoxy-4-biphenylyl)-1,2-dihydro-6-quinolinesulfonamide] | 62 nM |
| COc1cc(-c2ccc(-n3c(=O)ccc4cc(S(=O)(=O)Nc5ccon5)ccc43)c(OC)c2)ccc1Cl [Example 1027, 1-(4′-chloro-3,3′-dimethoxy-4-biphenylyl)-N-3-isoxazolyl-2-oxo-1,2-dihydro-6-quinolinesulfonamide] | 32 nM |
| COc1cc(-c2cc(C)ccc2Cl)ccc1-n1c(=O)ccc2cc(S(=O)(=O)Nc3ccon3)ccc21 [Example 1030, 1-(2′-chloro-3-methoxy-5′-methyl-4-biphenylyl)-N-3-isoxazolyl-2-oxo-1,2-dihydro-6-quinolinesulfonamide] | 12 nM |

Results, then the molecule that gave them:

| IC50 | Structure (SMILES) |
| --- | --- |
| 74 nM | COc1cc(-c2cc(OC)c(-n3c(=O)ccc4cc(S(=O)(=O)Nc5ncc(F)cn5)ccc43)cc2F)ccc1F [Example 1010, 1-(2,4′-difluoro-3′,5-dimethoxy-4-biphenylyl)-N-(5-fluoro-2-pyrimidinyl)-2-oxo-1,2-dihydro-6-quinolinesulfonamide] |
| 12 nM | COc1cc(-c2cc(C)cc(F)c2)ccc1-n1c(=O)ccc2cc(S(=O)(=O)Nc3ccon3)ccc21 [Example 1015, 1-(3′-fluoro-3-methoxy-5′-methyl-4-biphenylyl)-N-3-isoxazolyl-2-oxo-1,2-dihydro-6-quinolinesulfonamide] |
| 82 nM | COc1cc(-c2ccc(F)c(C#N)c2)ccc1-n1c(=O)ccc2cc(S(=O)(=O)Nc3ccon3)ccc21 [Example 1020, 1-(3′-cyano-4′-fluoro-3-methoxy-4-biphenylyl)-N-3-isoxazolyl-2-oxo-1,2-dihydro-6-quinolinesulfonamide] |
| 105 nM | COc1cc(-c2cc(F)cc(C#N)c2)ccc1-n1c(=O)ccc2cc(S(=O)(=O)Nc3ccon3)ccc21 [Example 1021, 1-(3′-cyano-5′-fluoro-3-methoxy-4-biphenylyl)-N-3-isoxazolyl-2-oxo-1,2-dihydro-6-quinolinesulfonamide] |
| 59 nM | COc1ccc(-c2ccc(-n3c(=O)ccc4cc(S(=O)(=O)Nc5ccon5)ccc43)c(OC)c2)cc1Cl [Example 1026, 1-(3′-chloro-3,4′-dimethoxy-4-biphenylyl)-N-3-isoxazolyl-2-oxo-1,2-dihydro-6-quinolinesulfonamide] |
| 18 nM | COc1cc(-c2cccc(Cl)c2C)ccc1-n1c(=O)ccc2cc(S(=O)(=O)Nc3ccon3)ccc21 [Example 1028, 1-(3′-chloro-3-methoxy-2′-methyl-4-biphenylyl)-N-3-isoxazolyl-2-oxo-1,2-dihydro-6-quinolinesulfonamide] |
| 3 nM | COc1cc(-c2cc(Cl)ccc2C)ccc1-n1c(=O)ccc2cc(S(=O)(=O)Nc3ccon3)ccc21 [Example 1029, 1-(5′-chloro-3-methoxy-2′-methyl-4-biphenylyl)-N-3-isoxazolyl-2-oxo-1,2-dihydro-6-quinolinesulfonamide] |

Same assay, conditions: in-vitro Nav 1.7 PX data (PatchXpress)

| Structure (SMILES) | IC50 |
| --- | --- |
| COc1ccc(Cl)c(-c2ccc(-n3c(=O)ccc4cc(S(=O)(=O)Nc5ccon5)ccc43)c(OC)c2)c1 [Example 1031, 1-(2′-chloro-3,5′-dimethoxy-4-biphenylyl)-N-3-isoxazolyl-2-oxo-1,2-dihydro-6-quinolinesulfonamide] | 25 nM |
| COc1cc(-c2cc(C)ccc2F)ccc1-n1c(=O)ccc2cc(S(=O)(=O)Nc3ccon3)ccc21 [Example 1032, 1-(2′-fluoro-3-methoxy-5′-methyl-4-biphenylyl)-N-3-isoxazolyl-2-oxo-1,2-dihydro-6-quinolinesulfonamide] | 49 nM |
| COc1ccc(F)c(-c2ccc(-n3c(=O)ccc4cc(S(=O)(=O)Nc5ccon5)ccc43)c(OC)c2)c1 [Example 1033, 1-(2′-fluoro-3,5′-dimethoxy-4-biphenylyl)-N-3-isoxazolyl-2-oxo-1,2-dihydro-6-quinolinesulfonamide] | 64 nM |
| COc1cc(-c2cc(Cl)ccc2F)ccc1-n1c(=O)ccc2cc(S(=O)(=O)Nc3ccon3)ccc21 [Example 1034, 1-(5′-chloro-2′-fluoro-3-methoxy-4-biphenylyl)-N-3-isoxazolyl-2-oxo-1,2-dihydro-6-quinolinesulfonamide] | 10 nM |
| COc1cc(-c2ccc(-n3c(=O)ccc4cc(S(=O)(=O)Nc5cccnn5)ccc43)c(OC)c2)ccc1Cl [Example 1038, 1-(4′-chloro-3,3′-dimethoxy-4-biphenylyl)-2-oxo-N-3-pyridazinyl-1,2-dihydro-6-quinolinesulfonamide] | 58 nM |
| COc1cc(-c2cc(OC)c(-n3c(=O)ccc4cc(S(=O)(=O)Nc5ncco5)ccc43)cc2F)ccc1Cl [Example 1040, 1-(4′-chloro-2-fluoro-3′,5-dimethoxy-4-biphenylyl)-N-1,3-oxazol-2-yl-2-oxo-1,2-dihydro-6-quinolinesulfonamide] | 31 nM |
| O=c1ccc2cc(S(=O)(=O)Nc3cccnn3)ccc2n1-c1ccc(-c2cc(F)cc(F)c2)cc1C1CC1 [Example 1042, 1-(3-cyclopropyl-3′,5′-difluoro-4-biphenylyl)-2-oxo-N-3-pyridazinyl-1,2-dihydro-6-quinolinesulfonamide] | 195 nM |

Results, then the molecule that gave them:

| IC50 | Structure (SMILES) |
| --- | --- |
| 20 nM | COc1ccc(C)cc1-c1ccc(-n2c(=O)ccc3cc(S(=O)(=O)Nc4ccon4)ccc32)c(OC)c1 [Example 1036, 1-(2′,3-dimethoxy-5′-methyl-4-biphenylyl)-N-3-isoxazolyl-2-oxo-1,2-dihydro-6-quinolinesulfonamide] |
| 24 nM | COc1ccc(C)c(-c2ccc(-n3c(=O)ccc4cc(S(=O)(=O)Nc5ccon5)ccc43)c(OC)c2)c1 [Example 1037, 1-(3,5′-dimethoxy-2′-methyl-4-biphenylyl)-N-3-isoxazolyl-2-oxo-1,2-dihydro-6-quinolinesulfonamide] |
| 149 nM | COc1cc(-c2ccc(-n3c(=O)ccc4cc(S(=O)(=O)Nc5ncco5)ccc43)c(OC)c2)ccc1Cl [Example 1039, 1-(4′-chloro-3,3′-dimethoxy-4-biphenylyl)-N-1,3-oxazol-2-yl-2-oxo-1,2-dihydro-6-quinolinesulfonamide] |
